Assay results as given in ChEMBL document CHEMBL2203190, “Sesquiterpenoids from Atractylodes macrocephala act as farnesoid X receptor and progesterone receptor modulators” (Bioorg Med Chem Lett, 2012).
Activity calls are given as the source filed them. No cut-off for these calls is given here.

What was measured:
[1] = target: T1, Bile acid receptor (Homo sapiens) (UniProt Q96RI1); assay: Antagonist activity at human FXR expressed in human HepG2 cells assessed as inhibition of CDCA-induced transactivation of SHP gene at 100 uM by measuring relative luciferase activity by transient transfection reporter assay relative to control; format: functional, cell-based
T1 sequence (whole entry): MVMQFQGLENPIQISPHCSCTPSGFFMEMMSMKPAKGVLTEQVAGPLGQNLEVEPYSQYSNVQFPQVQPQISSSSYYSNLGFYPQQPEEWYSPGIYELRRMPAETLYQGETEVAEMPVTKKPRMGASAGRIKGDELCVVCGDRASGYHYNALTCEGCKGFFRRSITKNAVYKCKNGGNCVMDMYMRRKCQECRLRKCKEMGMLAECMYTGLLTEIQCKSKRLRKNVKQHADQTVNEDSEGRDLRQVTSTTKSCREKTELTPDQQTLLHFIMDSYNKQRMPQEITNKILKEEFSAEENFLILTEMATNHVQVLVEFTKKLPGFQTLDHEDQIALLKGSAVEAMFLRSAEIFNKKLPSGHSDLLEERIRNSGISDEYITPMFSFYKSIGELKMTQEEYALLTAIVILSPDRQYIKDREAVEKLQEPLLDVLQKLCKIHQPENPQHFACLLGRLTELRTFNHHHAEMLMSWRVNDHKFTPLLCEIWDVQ

[2] = target: T1, Bile acid receptor (Homo sapiens); assay: Antagonist activity at human FXR expressed in human HepG2 cells assessed as inhibition of CDCA-induced transactivation of SHP gene at 10 uM by measuring relative luciferase activity by transient transfection reporter assay relative to control; format: functional, cell-based
[3] = target: T2, Progesterone receptor (Homo sapiens) (UniProt P06401); assay: Agonist activity at human PR expressed in human HepG2 cells assessed as MMTV gene promoter transactivation at 100 uM by measuring relative luciferase activity by transient transfection reporter assay relative to control; format: functional, cell-based
T2 sequence (whole entry): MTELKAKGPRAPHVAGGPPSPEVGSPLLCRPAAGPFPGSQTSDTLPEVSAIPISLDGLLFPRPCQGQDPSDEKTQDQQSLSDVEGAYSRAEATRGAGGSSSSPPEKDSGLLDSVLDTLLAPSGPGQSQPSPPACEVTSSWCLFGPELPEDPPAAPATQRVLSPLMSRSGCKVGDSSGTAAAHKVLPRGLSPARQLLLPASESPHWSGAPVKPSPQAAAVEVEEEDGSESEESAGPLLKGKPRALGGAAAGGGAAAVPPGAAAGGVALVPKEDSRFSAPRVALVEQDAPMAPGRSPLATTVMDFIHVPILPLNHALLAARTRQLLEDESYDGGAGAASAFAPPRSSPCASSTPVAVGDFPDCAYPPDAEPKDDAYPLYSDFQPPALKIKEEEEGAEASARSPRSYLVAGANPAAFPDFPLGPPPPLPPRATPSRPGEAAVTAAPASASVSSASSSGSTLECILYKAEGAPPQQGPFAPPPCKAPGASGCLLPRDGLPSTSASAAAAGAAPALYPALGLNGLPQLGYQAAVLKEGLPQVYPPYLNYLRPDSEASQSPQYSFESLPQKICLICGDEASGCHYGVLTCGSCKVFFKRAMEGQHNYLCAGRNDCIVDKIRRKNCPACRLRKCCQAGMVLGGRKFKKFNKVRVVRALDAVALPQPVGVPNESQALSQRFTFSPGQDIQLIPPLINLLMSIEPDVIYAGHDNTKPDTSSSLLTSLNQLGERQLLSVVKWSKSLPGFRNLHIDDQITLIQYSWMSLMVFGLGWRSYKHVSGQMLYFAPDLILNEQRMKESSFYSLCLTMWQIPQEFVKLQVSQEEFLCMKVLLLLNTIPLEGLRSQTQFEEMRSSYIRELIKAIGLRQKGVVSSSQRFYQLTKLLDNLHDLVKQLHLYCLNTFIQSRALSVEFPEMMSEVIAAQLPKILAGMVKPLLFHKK

[4] = target: T1, Bile acid receptor (Homo sapiens); assay: Antagonist activity at human FXR expressed in human HepG2 cells assessed as inhibition of CDCA-induced transactivation of SHP gene by measuring relative luciferase activity by transient transfection reporter assay relative to control; format: functional, cell-based
[5] = target: T1, Bile acid receptor (Homo sapiens); assay: Antagonist activity at human FXR expressed in human HepG2 cells assessed as upregulation of CYP7A1 gene transactivation at 100 uM by measuring relative luciferase activity by transient transfection reporter assay relative to control; format: functional, cell-based
[6] = target: T1, Bile acid receptor (Homo sapiens); assay: Agonist activity at human FXR expressed in human HepG2 cells assessed as transactivation of SHP gene at 400 uM by measuring relative luciferase activity by transient transfection reporter assay; format: functional, cell-based
[7] = target: T1, Bile acid receptor (Homo sapiens); assay: Antagonist activity at human FXR expressed in human HepG2 cells assessed as upregulation of CYP7A1 gene transactivation at 10 uM by measuring relative luciferase activity by transient transfection reporter assay relative to control; format: functional, cell-based
[8] = target: T1, Bile acid receptor (Homo sapiens); assay: Antagonist activity at human FXR expressed in human HepG2 cells assessed as inhibition of CDCA-induced transactivation of SHP gene at 50 uM by measuring relative luciferase activity by transient transfection reporter assay relative to control; format: functional, cell-based
[9] = target: T2, Progesterone receptor (Homo sapiens); assay: Agonist activity at human PR expressed in human HepG2 cells assessed as MMTV gene promoter transactivation at 10 uM by measuring relative luciferase activity by transient transfection reporter assay relative to control; format: functional, cell-based
[10] = target: Cellular tumor antigen p53 (Homo sapiens) (UniProt P04637); assay: Transactivation of p53 in human HepG2 cells expressing MDM2 promoter by transient transfection reporter assay; format: cell-based
Cellular tumor antigen p53 (Homo sapiens), sequence (P04637 whole entry, looked up): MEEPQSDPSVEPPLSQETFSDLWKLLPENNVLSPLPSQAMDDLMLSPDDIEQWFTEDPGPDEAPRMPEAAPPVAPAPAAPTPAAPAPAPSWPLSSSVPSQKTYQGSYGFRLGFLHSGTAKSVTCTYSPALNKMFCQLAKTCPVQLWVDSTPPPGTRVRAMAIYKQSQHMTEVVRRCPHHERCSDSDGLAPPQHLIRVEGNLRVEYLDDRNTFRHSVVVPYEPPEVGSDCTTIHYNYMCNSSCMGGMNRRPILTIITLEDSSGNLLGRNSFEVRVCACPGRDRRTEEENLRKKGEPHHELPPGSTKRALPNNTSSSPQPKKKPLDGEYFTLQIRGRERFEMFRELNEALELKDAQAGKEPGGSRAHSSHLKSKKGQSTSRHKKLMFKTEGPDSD

HepG2 = assay: Cytotoxicity against human HepG2 cells; format: cell-based

Compound | RLU [1] | RLU [2] | Activity [3] | inhibition [4] | fold change (FC) [5] | Activity [6] | fold change (FC) [7] | inhibition [8] | RLU [9] | RLU [3] | Activity [10] | Activity (HepG2)
C=C1CCC[C@]2(C)C[C@@H]3OC(=O)C(C)=C3C[C@@H]12 | 0.9 | 1.5 | inactive | Dose-dependent effect | 2 | inactive | 1.5 | 50% | – | – | – | –
CC(=O)[C@H]1CC[C@H]2[C@@H]3CCC4=CC(=O)CC[C@]4(C)[C@H]3CC[C@]12C | – | – | – | – | – | – | – | – | 2.38 | – | – | –
C=C1CCC[C@]2(C)C[C@]3(O)OC(=O)C(C)=C3C[C@@H]12 | 0.85 | 1.7 | – | Dose-dependent effect | – | inactive | 1.5 | 50% | 1.57 | 3.39 | – | –
C=C1CCC[C@]2(C)C=C3OC(=O)C(C)=C3C[C@@H]12 [ATRACTYLENOLIDE I] | – | – | – | – | – | – | – | – | – | – | Active | Toxic
